The values below come from patent publication US20030144295A1, “Treatment for ischemic stroke” (YAMANOUCHI PHARMACEUTICAL CO., LTD., priority 2001, published 2003).

Data set [1] deals with rat embolic stroke models. Description: Infarct volume (TTC staining) in rat embolic stroke models, Example 1. The note with it: 24 hours after blood clot injection; administration started 2 hours after clot; alteplase 10 mg/kg i.v., compound A 20 mg/kg/hour i.v. for 4 hours; n=8; control 361.2±20.9. Type of data set: in vivo, rat (male Sprague-Dawley). As to the method: FIG. 1: Effect of a combined use of compound A with alteplase on infarct volume in rat embolic stroke models. Administration of compound A (20 mg/kg/hr; i.v. for 4 hours) and alteplase (10 mg/kg; i.v.; 10% of the total dose was subjected to an intravenous bolus administration while the remainder (90%) was subjected to an intravenous administration continuously over 1 hour) was initiated 2 hours after the injection of blood clot. After 24 hours from the infusion of the blood clot, the brain was excised, sliced and stained with TTC. The data in the drawing show a mean value±standard error (n=8). The symbol * means a statistically significant difference from a control group or an alteplase-administered group (*p<0.05; Dunnett's test or t-test). […]
(§1) Evaluation of formation of cerebral embolism by injection of blood clot was carried out using a laser Doppler flowmetry (FloC1; Omegawave) and the cerebral blood flow decreased to a level of 30% or less of the blood clot value immediately after ischemia was taken as a positive evidence of embolism formation. […] The cerebral blood flow was monitored until 30 minutes after infusion of the blood clot and the blood flow of 30 minutes after ischemia was confirmed to-remain 50% or less than the value prior to the injection of the blood clot. […]

The test system of data set [2] is rat embolic stroke models. Description: Neurological symptoms (Bederson score) in rat embolic stroke models, Example 1. Type of data set: in vivo, rat (male Sprague-Dawley). To be noted: Bederson score 0-3, 24 hours after blood clot injection; administration started 2 hours after clot; alteplase 10 mg/kg i.v., compound A 20 mg/kg/hour for 4 hours; n=8; control 2.5. As to the method:
FIG. 2: Effect of a combined use of compound A with alteplase on neurological symptoms in rat embolic stroke models. Administration of zonampanel (20 mg/kg/hr; i.v. for 4 hours) and alteplase (10 mg/kg; i.v.; 10% of the total dose was subjected to an intravenous bolus administration while the remainder (90%) was subjected to an intravenous administration continuously over 1 hour) was initiated 2 hours after the injection of blood clot. After 24 hours from the injection of the blood clot, the neurological symptoms were observed. Data in the drawing show the data derived from each animal (n=8). The symbol * means a statistically significant difference from a control group or an alteplase-administered group (*p<0.05; Steel's test or Wilcoxon-test). […]
as §1

Another data set deals with AMPA receptor. The note with it: cited from earlier work.
The conditions of data set [3]: cited from earlier work.

As to `O=C(O)Cn1c(=O)c(=O)[nH]c2cc([N+](=O)[O-])c(-n3ccnc3)cc21` [compound A, [7-(1H-imidazol-1-yl)-6-nitro-2,3-dioxo-3,4-dihydroquinoxalin-1(2H)-yl]acetic acid], the “infarct volume (mean value±standard error)” value in data set [1] was found to be 194.6±50.6 mm^3. For the same compound, the “neurological symptom score (median value)” value in data set [2] is listed as 2. For the same compound, the AMPA binding activity entry in the data set with AMPA receptor was “strong and selective”. In addition, the solubility in water entry in data set [3] was “high”.
In the case of Alteplase [reference compound], the “infarct volume (mean value±standard error)” value in data set [1] is recorded as 202.7±49.3 mm^3.
